Assay results taken from ChEMBL document CHEMBL3714729, “Heterocyclic compounds for the inhibition of pask” (2012).

How the values were obtained:
[1] = molecular target: T1, PAS domain-containing serine/threonine-protein kinase (Homo sapiens, UniProt Q96RG2); assay: Inhibition of purified human PASK kinase domain expressed in insect cells using MBP protein substrate incubated for 10 mins before ATP addition and measured after 1 hr by kinase-Glo luminescent kinase assay
[2] = molecular target: T1, PAS domain-containing serine/threonine-protein kinase; assay: Inhibition of purified full-length human PASK expressed in insect cells using MBP protein substrate incubated for 10 mins before ATP addition and measured after 1 hr by kinase-Glo luminescent kinase assay
[3] = molecular target: T1, PAS domain-containing serine/threonine-protein kinase; assay: Inhibition of N-terminal GST-tagged human recombinant PASK kinase domain (879 to 1323 residues) expressed in insect cells using MBP protein substrate incubated for 120 mins in presence of [33P]ATP by scintillation counting based radiochemical assay
[4] = molecular target: T1, PAS domain-containing serine/threonine-protein kinase; assay: Inhibition of human recombinant PASK using Ulight-peptide substrate incubated for 2 hrs by TR-FRET assay
[5] = molecular target: Casein kinase II subunit alpha' (Homo sapiens, UniProt P19784); assay: Inhibition of GST-tagged full-length purified human CK2a2 using RRRDDDSDDD substrate incubated for 120 mins in presence of [33P]ATP by scintillation counting based biochemical assay
Chain of Casein kinase II subunit alpha' (P19784 whole entry): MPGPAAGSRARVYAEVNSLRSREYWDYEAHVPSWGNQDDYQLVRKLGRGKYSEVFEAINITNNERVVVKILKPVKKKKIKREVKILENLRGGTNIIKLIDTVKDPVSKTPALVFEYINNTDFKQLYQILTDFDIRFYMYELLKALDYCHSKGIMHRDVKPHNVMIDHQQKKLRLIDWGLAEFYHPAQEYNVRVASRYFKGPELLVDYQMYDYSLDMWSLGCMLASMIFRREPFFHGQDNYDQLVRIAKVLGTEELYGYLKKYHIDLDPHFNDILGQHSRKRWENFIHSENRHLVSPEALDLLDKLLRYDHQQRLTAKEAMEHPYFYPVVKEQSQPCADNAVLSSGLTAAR

T1 sequence (Q96RG2 whole entry, the tested form may be a part): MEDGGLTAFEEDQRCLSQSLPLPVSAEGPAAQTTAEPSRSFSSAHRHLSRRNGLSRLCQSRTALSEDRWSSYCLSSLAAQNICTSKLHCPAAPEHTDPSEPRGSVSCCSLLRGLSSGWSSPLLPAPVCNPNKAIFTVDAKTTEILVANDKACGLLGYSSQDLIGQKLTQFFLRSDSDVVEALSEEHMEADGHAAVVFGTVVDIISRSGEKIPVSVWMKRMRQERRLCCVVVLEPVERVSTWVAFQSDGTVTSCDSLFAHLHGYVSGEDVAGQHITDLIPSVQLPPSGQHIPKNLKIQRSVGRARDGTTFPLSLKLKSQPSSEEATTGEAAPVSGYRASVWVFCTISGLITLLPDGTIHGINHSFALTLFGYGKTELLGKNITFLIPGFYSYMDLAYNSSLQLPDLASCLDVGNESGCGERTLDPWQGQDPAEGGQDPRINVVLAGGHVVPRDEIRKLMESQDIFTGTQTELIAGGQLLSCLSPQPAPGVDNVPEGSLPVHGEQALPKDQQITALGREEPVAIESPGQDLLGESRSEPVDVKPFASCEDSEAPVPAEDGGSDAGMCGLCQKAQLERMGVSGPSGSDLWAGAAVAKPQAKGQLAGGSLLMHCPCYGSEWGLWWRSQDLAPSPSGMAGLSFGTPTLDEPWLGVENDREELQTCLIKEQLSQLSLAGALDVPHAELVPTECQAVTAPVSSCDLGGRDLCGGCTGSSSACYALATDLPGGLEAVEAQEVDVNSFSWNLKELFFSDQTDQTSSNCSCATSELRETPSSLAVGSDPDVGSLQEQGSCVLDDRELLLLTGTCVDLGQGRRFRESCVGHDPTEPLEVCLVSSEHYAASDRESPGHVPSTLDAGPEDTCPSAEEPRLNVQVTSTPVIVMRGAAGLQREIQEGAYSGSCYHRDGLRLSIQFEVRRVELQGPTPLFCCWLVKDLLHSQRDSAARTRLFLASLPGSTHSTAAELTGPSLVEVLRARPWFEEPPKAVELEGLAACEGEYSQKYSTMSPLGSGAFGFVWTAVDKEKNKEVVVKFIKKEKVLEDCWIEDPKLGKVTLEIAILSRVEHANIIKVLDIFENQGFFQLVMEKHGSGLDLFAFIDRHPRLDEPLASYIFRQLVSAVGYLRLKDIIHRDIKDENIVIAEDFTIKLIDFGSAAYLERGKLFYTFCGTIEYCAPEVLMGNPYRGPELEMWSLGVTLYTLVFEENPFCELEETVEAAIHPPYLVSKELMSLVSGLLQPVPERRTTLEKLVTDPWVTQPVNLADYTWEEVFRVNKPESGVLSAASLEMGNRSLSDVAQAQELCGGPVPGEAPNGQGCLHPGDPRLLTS

| IC50 [1] [µM] | IC50 [2] [µM] | IC50 [3] [µM] | IC50 [4] [µM] | IC50 [5] [µM] | SMILES |
| --- | --- | --- | --- | --- | --- |
| ≤ 10 | ≤ 10 |  |  |  | Cc1nn2c(=O)cc(-c3ccc(Cl)cc3)[nH]c2c1-c1ccccc1 |
|  | ≥ 10 |  |  |  | COc1ccc(-c2c(Cc3ccccc3)nn3c(=O)cc(-c4ccccc4)[nH]c23)cc1 |
|  |  | ≤ 10 | ≤ 10 | ≤ 10 | Nc1nn2c(=O)cc(-c3ccc(Cl)cc3)[nH]c2c1-c1ccccn1 |
| ≤ 10 | ≤ 10 |  |  |  | COc1ccc(-c2cc(=O)n3nc(C)c(-c4ccccc4)c3[nH]2)cc1 |
|  | ≥ 10 |  |  |  | O=c1c2c([nH]c3c(-c4ccccc4)c(-c4ccccc4)nn13)CCC2 |
|  |  | ≤ 10 | ≤ 10 | ≤ 10 | Nc1nn2c(=O)cc(-c3ccc(F)cc3)[nH]c2c1-c1ccccn1 |
| ≥ 10 | ≥ 10 |  |  |  | CCCc1cc(=O)n2nc(Cc3ccccc3)c(-c3ccc(Cl)cc3)c2[nH]1 |
| ≥ 10 | ≥ 10 |  |  |  | O=c1cc(-c2ccccc2)[nH]c2c(-c3ccc(Cl)cc3)c(Cc3ccccc3)nn12 |
|  | ≥ 10 |  |  |  | Cc1nn2c(=O)c(C#N)c(-c3ccccc3)[nH]c2c1-c1ccccc1 |
| ≥ 10 | ≥ 10 |  |  |  | COc1ccc(Cc2nn3c(=O)cc(-c4ccccc4)[nH]c3c2-c2ccccc2)cc1 |
| ≤ 10 | ≤ 10 |  |  |  | O=c1cc(-c2ccc([N+](=O)[O-])cc2)[nH]c2c(-c3ccc(Cl)cc3)c(Cc3ccccc3)nn12 |
|  |  | ≤ 10 | ≤ 10 | ≤ 10 | Nc1nn2c(=O)cc(-c3ccc4[nH]nnc4c3)[nH]c2c1-c1ccccc1 |
| ≥ 10 | ≥ 10 |  |  |  | O=c1cc(Cc2ccccc2)[nH]c2c(-c3ccccc3)c(Cc3ccccc3)nn12 |
| ≤ 10 | ≤ 10 |  |  |  | Cc1nn2c(=O)cc(-c3ccc([N+](=O)[O-])cc3)[nH]c2c1-c1ccc(Cl)cc1 |
| ≥ 10 | ≥ 10 |  |  |  | Cc1nn2c(=O)cc(-c3ccccc3)[nH]c2c1-c1ccc(F)cc1 |
| ≥ 10 | ≥ 10 |  |  |  | COCc1cc(=O)n2nc(Cc3ccccc3)c(-c3ccc(Cl)cc3)c2[nH]1 |
|  | ≥ 10 |  |  |  | O=c1cc(-c2ccccc2)[nH]c2c(-c3ccccc3)c(Cc3ccccc3)nn12 |
| ≥ 10 | ≥ 10 |  |  |  | CCc1c(C)[nH]c2c(-c3ccccc3)c(Cc3ccc(OC)cc3)nn2c1=O |
|  |  | ≤ 10 | ≤ 10 | ≤ 10 | Nc1nn2c(=O)cc(-c3ccc4c(c3)OCCO4)[nH]c2c1-c1ccccc1 |
| ≥ 10 | ≥ 10 |  |  |  | COCc1cc(=O)n2nc(Cc3ccccc3)c(-c3ccc(OC)cc3)c2[nH]1 |
| ≥ 10 | ≥ 10 |  |  |  | COc1ccc(-c2nn3c(=O)cc(C(C)C)[nH]c3c2-c2ccccc2)cc1 |
| ≥ 10 | ≥ 10 |  |  |  | COc1ccc(Cc2nn3c(=O)cc(C)[nH]c3c2-c2ccccc2)cc1 |
|  |  | ≤ 10 | ≤ 10 | ≤ 10 | O=c1cc(-c2ccc3occc3c2)[nH]c2c(-c3cccnc3)c(O)nn12 |
| ≥ 10 | ≥ 10 |  |  |  | Cc1cc(=O)n2nc(C)c(-c3ccc(Cl)cc3)c2[nH]1 |
| ≥ 10 | ≥ 10 |  |  |  | COc1ccc(-c2c(C)nn3c(=O)cc(Cc4ccccc4)[nH]c23)cc1 |
| ≤ 10 | ≤ 10 |  |  |  | Cc1nn2c(=O)cc(-c3ccccc3)[nH]c2c1-c1ccc(Cl)cc1 |
|  | ≥ 10 |  |  |  | COc1ccc(-c2c(C)nn3c(=O)cc(-c4ccccc4)[nH]c23)cc1 |

More lines, now with the values behind:

| SMILES | IC50 [1] [µM] | IC50 [2] [µM] | IC50 [3] [µM] | IC50 [4] [µM] | IC50 [5] [µM] |
| --- | --- | --- | --- | --- | --- |
| O=c1cc(-c2ccc3[nH]nnc3c2)[nH]c2c(-c3cccnc3)cnn12 |  |  | ≤ 10 | ≤ 10 | ≤ 10 |
| CCCNC(=O)c1cnn2c(=O)cc(-c3ccc4[nH]nnc4c3)[nH]c12 |  |  | ≤ 10 | ≤ 10 | ≤ 10 |
| O=c1c2c([nH]c3c(-c4ccc(Cl)cc4)c(Cc4ccccc4)nn13)CCC2 | ≥ 10 | ≥ 10 |  |  |  |
| O=c1cc(-c2ccc3c(c2)OC(F)(F)O3)[nH]c2c(-c3ccccn3)cnn12 |  |  | ≤ 10 | ≤ 10 | ≤ 10 |
| Cc1nn2c(=O)c3c([nH]c2c1-c1ccc(Cl)cc1)CCC3 | ≥ 10 | ≥ 10 |  |  |  |
| Cc1nn2c(=O)cc(-c3ccc4c(c3)OCO4)[nH]c2c1Cc1ccccn1 |  |  | ≤ 10 | ≤ 10 | ≤ 10 |
| O=c1cc(-c2ccc3[nH]nnc3c2)[nH]c2c(-c3ccc(Cl)cc3)cnn12 |  |  | ≤ 10 | ≤ 10 | ≤ 10 |
| CCc1nn2c(=O)cc(-c3ccc4c(c3)OCO4)[nH]c2c1-c1ccccn1 |  |  | ≤ 10 | ≤ 10 | ≤ 10 |
| Nc1nn2c(=O)cc(-c3ccc(Cl)cc3F)[nH]c2c1-c1ccccn1 |  |  | ≤ 10 | ≤ 10 | ≤ 10 |
| CCCNC(=O)c1c(N)nn2c(=O)cc(-c3ccc4[nH]nc(C)c4c3)[nH]c12 |  |  | ≤ 10 | ≤ 10 | ≤ 10 |
| O=c1cc(-c2ccc(-c3ncco3)cc2)[nH]c2c(-c3ccccn3)cnn12 |  |  | ≤ 10 | ≤ 10 | ≥ 10 |
| O=c1cc(-c2cc3nn[nH]c3cc2F)[nH]c2c(-c3ccccn3)cnn12 |  |  | ≤ 10 | ≤ 10 | ≤ 10 |
| CCCNC(=O)c1c(O)nn2c(=O)cc(-c3ccc4c(c3)OCO4)[nH]c12 |  |  | ≤ 10 | ≤ 10 | ≤ 10 |
| COc1c(-c2cc(=O)n3ncc(-c4ccccn4)c3[nH]2)ccc2[nH]nnc12 |  |  | ≤ 10 | ≤ 10 | ≤ 10 |
| Nc1nn2c(=O)cc(-c3ccc4c(c3)OCCO4)[nH]c2c1-c1ccccn1 |  |  | ≤ 10 | ≤ 10 | ≤ 10 |
| CCCNC(=O)c1cnn2c(=O)cc(-c3ccc4c(c3)OCCO4)[nH]c12 |  |  | ≤ 10 | ≤ 10 | ≤ 10 |
| Nc1nn2c(=O)cc(-c3ccc4[nH]nnc4c3)[nH]c2c1-c1ccc(Cl)cc1 |  |  | ≤ 10 | ≤ 10 | ≤ 10 |
| O=C(NCc1ccccc1)c1cnn2c(=O)cc(-c3ccc(Cl)cc3)[nH]c12 |  |  | ≤ 10 | ≤ 10 | ≤ 10 |
| CCCNC(=O)c1c(N)nn2c(=O)cc(-c3ccc4c(cnn4C)c3)[nH]c12 |  |  | ≤ 10 | ≤ 10 | ≤ 10 |
| N#Cc1ccc(-c2cc(=O)n3ncc(-c4ccccn4)c3[nH]2)cc1 |  |  | ≤ 10 | ≤ 10 | ≥ 10 |
| Cc1cc(=O)n2nc(-c3ccc(Cl)cc3)cc2[nH]1 |  | ≤ 10 |  |  |  |
| COc1c(-c2cc(=O)n3nc(C)c(-c4ccccn4)c3[nH]2)ccc2c1OCO2 |  |  | ≤ 10 | ≤ 10 | ≤ 10 |
| CC(=O)Nc1nn2c(=O)cc(-c3ccc4c(c3)OCO4)[nH]c2c1-c1ccccn1 |  |  | ≤ 10 | ≤ 10 | ≤ 10 |

| SMILES | IC50 [1] [µM] | IC50 [2] [µM] | IC50 [3] [µM] | IC50 [4] [µM] | IC50 [5] [µM] |
| --- | --- | --- | --- | --- | --- |
| CCNc1nn2c(=O)cc(-c3ccc4c(c3)OCO4)[nH]c2c1-c1ccccn1 |  |  | ≤ 10 | ≤ 10 | ≤ 10 |
| Nc1nn2c(=O)cc(-c3ccc4c(c3)OCO4)[nH]c2c1-c1ccccn1 |  |  | ≤ 10 | ≤ 10 | ≤ 10 |
| CCCNC(=O)c1c(N)nn2c(=O)cc(-c3ccc4[nH]ncc4c3)[nH]c12 |  |  | ≤ 10 | ≤ 10 | ≤ 10 |
| COc1cc2[nH]nnc2cc1-c1cc(=O)n2nc(N)c(-c3ccccn3)c2[nH]1 |  |  | ≤ 10 | ≤ 10 | ≥ 10 |
| Nc1nn2c(=O)cc(-c3ccc4[nH]ncc4c3)[nH]c2c1-c1ccccn1 |  |  | ≤ 10 | ≤ 10 | ≤ 10 |
| CCCNC(=O)c1c(N)nn2c(=O)cc(-c3ccc(Cl)cc3)[nH]c12 |  |  | ≤ 10 | ≤ 10 | ≤ 10 |
| O=c1cc(-c2ccc3[nH]nnc3c2)[nH]c2c(-c3ccccn3)c(O)nn12 |  |  | ≤ 10 | ≤ 10 | ≤ 10 |
| COc1ccccc1-c1cc(=O)n2nc(C)c(-c3ccccc3)c2[nH]1 | ≤ 10 | ≤ 10 |  |  |  |
| COc1c(-c2cc(=O)n3nc(N)c(-c4ccccn4)c3[nH]2)ccc2c1OCO2 |  |  | ≤ 10 | ≤ 10 | ≤ 10 |
| Cc1[nH]c2c(-c3ccc(Cl)cc3)cnn2c(=O)c1Cc1ccccc1 | ≤ 10 | ≤ 10 |  |  |  |
| CCCc1cc(=O)n2nc(C)c(-c3ccc(Cl)cc3)c2[nH]1 | ≥ 10 | ≥ 10 |  |  |  |
| CC(=O)Nc1nn2c(=O)cc(-c3ccc4c(cnn4C)c3)[nH]c2c1-c1ccccn1 |  |  | ≤ 10 | ≤ 10 | ≤ 10 |
| CCc1nn2c(=O)cc(-c3ccc4[nH]nnc4c3)[nH]c2c1-c1ccccn1 |  |  | ≤ 10 | ≤ 10 | ≤ 10 |
| O=c1cc(-c2ccc3[nH]ncc3c2)[nH]c2c(-c3ccccn3)cnn12 |  |  | ≤ 10 | ≤ 10 | ≤ 10 |
| COc1c(-c2cc(=O)n3nc(O)c(-c4ccccn4)c3[nH]2)ccc2c1OCO2 |  |  | ≤ 10 | ≤ 10 | ≤ 10 |
| CCCNC(=O)c1c(N)nn2c(=O)cc(-c3ccc4[nH]nnc4c3)[nH]c12 |  |  | ≤ 10 | ≤ 10 | ≤ 10 |
| Cc1cc(=O)n2nc(-c3cccc(Br)c3)cc2[nH]1 |  | ≤ 10 |  |  |  |
| O=c1cc(-c2ccccc2)[nH]c2c(-c3cccc4ccccc34)c(Cc3ccccc3)nn12 | ≥ 10 | ≥ 10 |  |  |  |
| O=c1cc(-c2ccc3c(c2)OCO3)[nH]c2c(-c3ncccc3F)cnn12 |  |  | ≤ 10 | ≤ 10 | ≤ 10 |
| COCc1cc(=O)n2nc(-c3ccc(Cl)cc3)cc2[nH]1 | ≥ 10 | ≥ 10 |  |  |  |
| Nc1nn2c(=O)cc(-c3ccc4[nH]nnc4c3)[nH]c2c1-c1ccccn1 |  |  | ≤ 10 | ≤ 10 | ≤ 10 |
| CN(Cc1ccccc1)C(=O)c1cnn2c(=O)cc(-c3ccc4c(c3)OCCO4)[nH]c12 |  |  | ≤ 10 | ≤ 10 | ≤ 10 |
